Starred links: 1 amine or outer side, 2 acyl side, 3 side chain; linkers in the order of their positions; H or OH if unused. Non-standard residues stand in square brackets, D forms with d. Residues, ends and D or L forms follow the SMILES beside them. Groups on a side chain read outwards from the residue. *: point of attachment. C18 diacid = O=C(O)CCCCCCCCCCCCCCCCC(=O)*; γGlu = O=C(O)[C@H](CCC(=O)[*:2])N[*:1]; NMeY = CN[C@@H](Cc1ccc(O)cc1)C(=O)O; AEEA = NCCOCCOCC(=O)O; Aib = CC(C)(N)C(=O)O
Assay: physchem
Details: pH 7.4, aqueous buffer
Procedure, shortened: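 3 mg of peptide treated with 100 μL portions of 200 mM phosphate buffer pH 7.4, sonicating/vortexing up to 1 min, with further buffer added until fully dissolved. Solubility then quantified by HPLC.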
For `CC[C@H](C)[C@H](NC(=O)[C@H](CO)NC(=O)[C@H](Cc1ccc(O)cc1)NC(=O)[C@H](CC(=O)O)NC(=O)[C@H](CO)NC(=O)[C@@H](NC(=O)[C@H](Cc1ccccc1)NC(=O)[C@@H](NC(=O)CNC(=O)[C@H](CCC(=O)O)NC(=O)C(C)(C)NC(=O)[C@H](Cc1ccc(O)cc1)NC)[C@@H](C)O)[C@@H](C)CC)C(=O)N[C@@H](C)C(=O)N[C@@H](CCCCNC(=O)CNC(=O)CNC(=O)CNC(=O)CNC(=O)CNC(=O)CCCCCCCCCCCCCCCCC(=O)O)C(=O)N[C@@H](CC(=O)O)C(=O)N[C@@H](CCCCN)C(=O)NC(C)(C)C(=O)N[C@@H](Cc1c[nH]cn1)C(=O)N[C@@H](CCC(N)=O)C(=O)NC(C)(C)C(=O)N[C@@H](CC(N)=O)C(=O)N[C@@H](Cc1ccccc1)C(=O)N[C@H](C(=O)N[C@@H](CC(N)=O)C(=O)N[C@@H](Cc1c[nH]c2ccccc12)C(=O)N[C@@H](CC(C)C)C(=O)N[C@@H](CC(C)C)C(=O)N[C@@H](C)C(=O)N[C@@H](CCC(N)=O)C(=O)N[C@@H](CCCCN)C(=O)NCC(=O)N[C@@H](CCCCN)C(=O)N[C@@H](CCCCN)C(=O)N[C@@H](CC(N)=O)C(=O)N[C@@H](CC(N)=O)C(=O)N[C@@H](Cc1c[nH]c2ccccc12)C(=O)N[C@@H](CCCCN)C(=O)N[C@@H](Cc1c[nH]cn1)C(=O)N[C@@H](CC(N)=O)C(N)=O)C(C)C` [Compound 281], the solubility was less than 15 mg/mL. Work on `CC[C@H](C)[C@H](NC(=O)[C@H](Cc1ccccc1)NC(=O)[C@@H](NC(=O)CNC(=O)[C@H](CCC(=O)O)NC(=O)C(C)(C)NC(=O)[C@H](Cc1ccc(O)cc1)NC)[C@@H](C)O)C(=O)N[C@@H](CO)C(=O)N[C@@H](CC(=O)O)C(=O)N[C@@H](Cc1ccc(O)cc1)C(=O)N[C@@H](CO)C(=O)N[C@H](C(=O)NC(C)(C)C(=O)N[C@@H](CC(C)C)C(=O)N[C@@H](CC(=O)O)C(=O)N[C@@H](CCCNC(=N)N)C(=O)N[C@@H](CCCCNC(=O)CNC(=O)CNC(=O)CNC(=O)CNC(=O)CNC(=O)CCCCCCCCCCCCCCCCC(=O)O)C(=O)N[C@@H](C)C(=O)N[C@@H](CCC(N)=O)C(=O)NC(C)(C)C(=O)N[C@@H](CC(=O)O)C(=O)N[C@@H](Cc1ccccc1)C(=O)N[C@H](C(=O)N[C@@H](CC(N)=O)C(=O)N[C@@H](Cc1c[nH]c2ccccc12)C(=O)N[C@@H](CC(C)C)C(=O)N[C@@H](CC(C)C)C(=O)N[C@@H](C)C(=O)N[C@@H](CCC(N)=O)C(=O)N[C@@H](CCCNC(=N)N)C(=O)NCC(=O)O)C(C)C)[C@@H](C)CC` [Compound 284] yielded a solubility of less than 15 mg/mL. `CC[C@H](C)[C@H](NC(=O)[C@H](CCCNC(=N)N)NC(=O)[C@H](CC(=O)O)NC(=O)[C@H](CCCCNC(=O)CNC(=O)CNC(=O)CNC(=O)CNC(=O)CNC(=O)CCCCCCCCCCCCCCCCC(=O)O)NC(=O)[C@H](C)NC(=O)[C@@H](NC(=O)[C@H](CO)NC(=O)[C@H](Cc1ccc(O)cc1)NC(=O)[C@H](CC(=O)O)NC(=O)[C@H](CO)NC(=O)[C@@H](NC(=O)[C@H](Cc1ccccc1)NC(=O)[C@@H](NC(=O)CNC(=O)[C@H](CCC(=O)O)NC(=O)C(C)(C)NC(=O)[C@H](Cc1ccc(O)cc1)NC)[C@@H](C)O)[C@@H](C)CC)[C@@H](C)CC)C(=O)N[C@@H](C)C(=O)N[C@@H](CCC(N)=O)C(=O)N[C@@H](CCC(N)=O)C(=O)N[C@@H](CC(=O)O)C(=O)N[C@@H](Cc1ccccc1)C(=O)N[C@H](C(=O)N[C@@H](CC(N)=O)C(=O)N[C@@H](Cc1c[nH]c2ccccc12)C(=O)N[C@@H](CC(C)C)C(=O)N[C@@H](CC(C)C)C(=O)N[C@@H](C)C(=O)N[C@@H](CCC(N)=O)C(=O)N[C@@H](CCCNC(=N)N)C(=O)N1CCC[C@H]1C(=O)N[C@@H](CO)C(=O)N[C@@H](CO)C(=O)NCC(=O)O)C(C)C` [Compound 285] gave a solubility of less than 6 mg/mL. `CC[C@H](C)[C@H](NC(=O)[C@H](CCCNC(=N)N)NC(=O)[C@H](CC(=O)O)NC(=O)[C@H](CC(C)C)NC(=O)[C@H](C)NC(=O)[C@@H](NC(=O)[C@H](CO)NC(=O)[C@H](Cc1ccc(O)cc1)NC(=O)[C@H](CC(=O)O)NC(=O)[C@H](CO)NC(=O)[C@@H](NC(=O)[C@H](Cc1ccccc1)NC(=O)[C@@H](NC(=O)CNC(=O)[C@H](CCC(=O)O)NC(=O)C(C)(C)NC(=O)[C@H](Cc1ccc(O)cc1)NC)[C@@H](C)O)[C@@H](C)CC)[C@@H](C)CC)C(=O)N[C@@H](C)C(=O)N[C@@H](CCC(N)=O)C(=O)N[C@@H](CCC(N)=O)C(=O)N[C@@H](CCCCNC(=O)COCCOCCNC(=O)COCCOCCNC(=O)CC[C@H](NC(=O)CC[C@H](NC(=O)CCCCCCCCCCCCCCCCC(=O)O)C(=O)O)C(=O)O)C(=O)N[C@@H](Cc1ccccc1)C(=O)N[C@H](C(=O)N[C@@H](CC(N)=O)C(=O)N[C@@H](Cc1c[nH]c2ccccc12)C(=O)N[C@@H](CC(C)C)C(=O)N[C@@H](CC(C)C)C(=O)N[C@@H](C)C(=O)N[C@@H](CCC(N)=O)C(=O)N[C@@H](CCCNC(=N)N)C(=O)NCC(=O)O)C(C)C` [Compound 286] (H-[NMeY][Aib]EGTFISDYSIALDRIAQQK([AEEA-AEEA-γGlu-γGlu-C18 diacid])FVNWLLAQRG-OH) gave a solubility of less than 6 mg/mL. With `CC[C@H](C)[C@H](NC(=O)[C@H](CO)NC(=O)[C@H](Cc1ccc(O)cc1)NC(=O)[C@H](CC(=O)O)NC(=O)[C@H](CO)NC(=O)[C@@H](NC(=O)[C@H](Cc1ccccc1)NC(=O)[C@@H](NC(=O)CNC(=O)[C@H](CCC(=O)O)NC(=O)C(C)(C)NC(=O)[C@H](Cc1ccc(O)cc1)NC)[C@@H](C)O)[C@@H](C)CC)C(=O)N[C@@H](C)C(=O)N[C@@H](CC(C)C)C(=O)N[C@@H](CC(=O)O)C(=O)N[C@@H](CCCNC(=N)N)C(=O)N[C@H](C(=O)N[C@@H](CCCCNC(=O)COCCOCCNC(=O)COCCOCCNC(=O)CC[C@H](NC(=O)CC[C@H](NC(=O)CCCCCCCCCCCCCCCCC(=O)O)C(=O)O)C(=O)O)C(=O)N[C@@H](CCC(N)=O)C(=O)N[C@@H](CCC(N)=O)C(=O)N[C@@H](CC(=O)O)C(=O)N[C@@H](Cc1ccccc1)C(=O)N[C@H](C(=O)N[C@@H](CC(N)=O)C(=O)N[C@@H](Cc1c[nH]c2ccccc12)C(=O)N[C@@H](CC(C)C)C(=O)N[C@@H](CC(C)C)C(=O)N[C@@H](C)C(=O)N[C@@H](CCC(N)=O)C(=O)N[C@@H](CCCNC(=N)N)C(=O)N1CCC[C@H]1C(=O)N[C@@H](CO)C(=O)N[C@@H](CO)C(=O)NCC(=O)O)C(C)C)[C@@H](C)CC` [Compound 287] (H-[NMeY][Aib]EGTFISDYSIALDRIK([AEEA-AEEA-γGlu-γGlu-C18 diacid])QQDFVNWLLAQRPSSG-OH) the solubility was less than 6 mg/mL. Molecule `CC[C@H](C)[C@H](NC(=O)[C@H](CO)NC(=O)[C@H](Cc1ccc(O)cc1)NC(=O)[C@H](CC(=O)O)NC(=O)[C@H](CO)NC(=O)[C@@H](NC(=O)[C@H](Cc1ccccc1)NC(=O)[C@@H](NC(=O)CNC(=O)[C@H](CCC(=O)O)NC(=O)C(C)(C)NC(=O)[C@H](Cc1ccc(O)cc1)NC)[C@@H](C)O)[C@@H](C)CC)C(=O)N[C@@H](C)C(=O)N[C@@H](CC(C)C)C(=O)N[C@@H](CC(=O)O)C(=O)N[C@@H](CCCNC(=N)N)C(=O)N[C@@H](CCCCNC(=O)CNC(=O)CNC(=O)CNC(=O)CNC(=O)CNC(=O)CCCCCCCCCCCCCCCCC(=O)O)C(=O)N[C@@H](C)C(=O)N[C@@H](CCC(N)=O)C(=O)N[C@@H](CCC(N)=O)C(=O)N[C@@H](CC(=O)O)C(=O)N[C@@H](Cc1ccccc1)C(=O)N[C@H](C(=O)N[C@@H](CC(N)=O)C(=O)N[C@@H](Cc1c[nH]c2ccccc12)C(=O)N[C@@H](CC(C)C)C(=O)N[C@@H](CC(C)C)C(=O)N[C@@H](C)C(=O)N[C@@H](CCC(N)=O)C(=O)N[C@@H](CCCNC(=N)N)C(=O)N1CCC[C@H]1C(=O)N[C@@H](CO)C(=O)N[C@@H](CO)C(=O)NCC(=O)O)C(C)C` [Compound 288] has a solubility of less than 6 mg/mL.

Same assay, conditions: pH 7.4, aqueous buffer, pH 7.4 Phosphate Buffer - Solubility, 200 mM Phosphate buffer pH 7.4
In the case of `CC[C@H](C)[C@H](NC(=O)[C@H](CO)NC(=O)[C@H](Cc1ccc(O)cc1)NC(=O)[C@H](CC(=O)O)NC(=O)[C@H](CO)NC(=O)[C@@H](NC(=O)[C@H](Cc1ccccc1)NC(=O)[C@@H](NC(=O)CNC(=O)[C@H](CCC(=O)O)NC(=O)C(C)(C)NC(=O)[C@H](Cc1ccc(O)cc1)NC)[C@@H](C)O)[C@@H](C)CC)C(=O)N[C@@H](C)C(=O)N[C@@H](CC(C)C)C(=O)N[C@@H](CO)C(=O)N[C@@H](CCCNC(=N)N)C(=O)N[C@@H](CCCCNC(=O)CNC(=O)CNC(=O)CNC(=O)CNC(=O)CNC(=O)CNC(=O)CCCCCCCCCCCCCCCCC(=O)O)C(=O)N[C@@H](Cc1c[nH]cn1)C(=O)N[C@@H](CCC(N)=O)C(=O)NC(C)(C)C(=O)N[C@@H](CC(N)=O)C(=O)N[C@@H](Cc1ccccc1)C(=O)N[C@H](C(=O)N[C@@H](CC(N)=O)C(=O)N[C@@H](Cc1c[nH]c2ccccc12)C(=O)N[C@@H](CC(C)C)C(=O)N[C@@H](CC(C)C)C(=O)N[C@@H](C)C(=O)N[C@@H](CCC(N)=O)C(=O)N[C@@H](CCCNC(=N)N)C(=O)N1CCC[C@H]1C(=O)N[C@@H](CO)C(=O)N[C@@H](CO)C(=O)NCC(=O)N[C@@H](C)C(=O)N1CCC[C@H]1C(=O)N1CCC[C@H]1C(=O)N1CCC[C@H]1C(=O)N[C@@H](CO)C(=O)N[C@@H](CCCNC(=N)N)C(N)=O)C(C)C` [Compound 279], the solubility is reported as less than 15 mg/mL. `CC[C@H](C)[C@H](NC(=O)[C@H](CO)NC(=O)[C@H](Cc1ccc(O)cc1)NC(=O)[C@H](CC(=O)O)NC(=O)[C@H](CO)NC(=O)[C@@H](NC(=O)[C@H](Cc1ccccc1)NC(=O)[C@@H](NC(=O)CNC(=O)[C@H](CCC(=O)O)NC(=O)C(C)(C)NC(=O)[C@H](Cc1ccc(O)cc1)NC)[C@@H](C)O)[C@@H](C)CC)C(=O)N[C@@H](C)C(=O)N[C@@H](CC(C)C)C(=O)N[C@@H](CCCCN)C(=O)N[C@@H](CCCNC(=N)N)C(=O)N[C@@H](CCCCNC(=O)CNC(=O)CNC(=O)CNC(=O)CNC(=O)CNC(=O)CNC(=O)CCCCCCCCCCCCCCCCC(=O)O)C(=O)N[C@@H](Cc1c[nH]cn1)C(=O)N[C@@H](CCC(N)=O)C(=O)NC(C)(C)C(=O)N[C@@H](CC(N)=O)C(=O)N[C@@H](Cc1ccccc1)C(=O)N[C@H](C(=O)N[C@@H](CC(N)=O)C(=O)N[C@@H](Cc1c[nH]c2ccccc12)C(=O)N[C@@H](CC(C)C)C(=O)N[C@@H](CC(C)C)C(=O)N[C@@H](C)C(=O)N[C@@H](CCC(N)=O)C(=O)N[C@@H](CCCNC(=N)N)C(=O)N1CCC[C@H]1C(=O)N[C@@H](CO)C(=O)N[C@@H](CO)C(=O)NCC(=O)N[C@@H](C)C(=O)N1CCC[C@H]1C(=O)N1CCC[C@H]1C(=O)N1CCC[C@H]1C(=O)N[C@@H](CO)C(=O)N[C@@H](CCCNC(=N)N)C(N)=O)C(C)C` [Compound 280] showed a solubility of less than 15 mg/mL.
